Several values for one entry are separate records, joined by “and”; a condition that tells them apart may be missing. Equal entries are not always repeated.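 Cultured in 96-well plates, cells were exposed to test compound for 48 hours across five concentrations. GI50 marks 50% less growth. The concentration for full growth arrest is given as TGI.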
Legend:
Assay in all cases: growth of human tumour cells (NCI), 48 h
[1] = system: NCI-H23 lung
[2] = system: ACHN renal
[3] = system: HCC-2998 colon
[4] = system: UACC-62 melanoma
[5] = system: HCT-116 colon
[6] = system: CAKI-1 renal
[7] = system: OVCAR-5 ovarian
[8] = system: NCI-H460 lung
[9] = system: SW-620 colon

Compound	GI50 [1]	TGI [1]	GI50 [2]	TGI [2]	GI50 [3]	TGI [3]	GI50 [4]	TGI [4]	GI50 [5]	TGI [5]	GI50 [6]	TGI [6]	TGI [7]	TGI [8]	TGI [9]	GI50 [7]	GI50 [8]	GI50 [9]
C1C[S][Ge]2([S]CCO1)[S]CCOCC[S]2	> 100000 nM	> 100 µM	> 100000 nM	> 100 µM	> 100 µM	> 100 µM	> 100000 nM	> 100 µM	> 100000 nM	> 100 µM	> 100000 nM	> 100 µM	–	–	–	–	–	–
COc1ccc(C(=O)C(C(=O)C(=O)Nc2ccc(Cl)c(Cl)c2)c2ccc(OC)cc2)cc1 (configuration not stated)	–	> 100 µM	–	> 100 µM	–	> 100 µM	–	> 100 µM	–	> 100 µM	–	> 100 µM	> 100 µM	> 100 µM	> 100 µM	–	–	–
COc1ccc(-c2nn(-c3cccc(NC(=O)c4ccc5c(c4)OCCO5)c3)cc2-c2ccncc2)cc1Cl	2710 nM	21.3 µM	3820 nM	> 100 µM	5.48 µM	17.9 µM	1460 nM	15.9 µM	2030 nM	14.5 µM	2630 nM	15.8 µM	29.8 µM	15.6 µM	19.2 µM	5.19 µM	2670 nM	2620 nM
CC(C)(C)CC(C)(C)c1cc2c(O)c(c1)Cc1cc(C(C)(C)CC(C)(C)C)cc(c1O)Cc1cc(C(C)(C)CC(C)(C)C)cc(c1O)Cc1cc(C(C)(C)CC(C)(C)C)cc(c1O)Cc1cc(C(C)(C)CC(C)(C)C)cc(c1O)Cc1cc(C(C)(C)CC(C)(C)C)cc(c1O)C2	–	> 100 µM	–	> 100 µM	–	> 100 µM	–	> 100 µM	–	> 100 µM	–	–	> 100 µM	> 100 µM	> 100 µM	–	–	–
CC(=O)O[C@H](C[C@H](C(C)C)N(C)C(=O)[C@@H](NC(=O)[C@H]1CCCCN1C)C(C)C)c1nc(C(=O)N[C@@H](Cc2ccccc2)C[C@H](C)C(=O)O)c(C(C)C)s1	< 3.33 nM	> 33.3 µM	4.58 nM	> 18.5 µM	< 0.00333 µM	2 µM	< 3.33 nM	> 33.3 µM	< 3.33 nM	0.773 µM	< 3.33 nM	> 27.4 µM	> 33.3 µM	5.05 µM	> 33.3 µM	0.0176 µM	< 3.33 nM	< 3.33 nM
COc1ccc(C2=NN(C(=O)c3cc(OC)c(OC)c(OC)c3)C(c3ccc(Cl)cc3)C2)cc1OC (configuration not stated)	5780 nM	> 90.1 µM	2320 nM	41.3 µM	7.61 µM	> 100 µM	549 nM	15.5 µM	2040 nM	19.7 µM	1140 nM	> 54.1 µM	> 100 µM	> 100 µM	> 100 µM	76.5 µM	2110 nM	1600 nM
O=C1N(c2ccccc2)C(=O)C2(SC=NN2Cc2ccccc2)N1c1ccccc1 (configuration not stated)	–	> 100 µM	–	> 100 µM	–	> 100 µM	–	> 100 µM	–	> 100 µM	–	> 100 µM	–	> 100 µM	> 100 µM	–	–	–
CCOc1cc2c(cc1O)/C(=N\O)C[C@@H]1[C@@H]2CC[C@]2(C)[C@@H](O)CC[C@@H]12	4 nM	–	24 nM	> 49.5 µM	1.63 µM	9.51 µM and > 41.1 µM	6.07 nM	28.8 µM	–	–	–	–	> 100 µM	1.47 µM	> 100 µM	–	–	23.4 nM and 38.2 nM
O=C1OCCC1C(O)C1c2ccccc2-c2ccccc21 (configuration not stated)	–	> 100 µM	–	> 100 µM	–	–	–	> 100 µM	–	> 100 µM	–	> 100 µM	> 100 µM	> 100 µM	> 100 µM	–	–	–
COc1c(NC(C)=O)cc(C)cc1NC(C)=O	–	–	–	> 100 µM	–	> 100 µM	–	> 100 µM	–	> 100 µM	–	> 100 µM	–	> 100 µM	> 100 µM	–	–	–
CC(=O)O[C@]1(C)OC(=O)[C@@H](C)N1[N+](=O)[O-]	–	> 100 µM	–	> 100 µM	–	> 100 µM	–	> 100 µM	–	> 100 µM	–	–	> 100 µM	> 100 µM	> 100 µM	–	–	–
COc1ccc2c(c1)[n+]([O-])c(-c1ccccc1)c(N)[n+]2[O-]	–	61.7 µM	–	> 100 µM	–	> 100 µM	–	> 100 µM	–	–	–	92.3 µM	> 100 µM	> 100 µM	> 100 µM	–	–	–
COC(=O)C1=C(C(=O)OC)C23CC1C1C(C(=O)OC)=C(C(=O)OC)C12C1C=CC3C2C(=O)OC(=O)C21 (configuration not stated)	–	> 100 µM	–	> 100 µM	–	> 100 µM	–	> 100 µM	–	> 100 µM	–	–	> 100 µM	> 100 µM	> 100 µM	–	–	–
CN[C@@H](C)[C@@H](N)c1ccccc1	–	> 100 µM	–	> 100 µM	–	> 100 µM	–	> 100 µM	–	> 100 µM	–	> 100 µM	–	> 100 µM	> 100 µM	–	–	–
C[C@]12CCc3nonc3C1CC[C@@H]1C2CC[C@]2(C)NC(=O)CCC12 (some centres not stated)	–	> 100 µM	–	> 100 µM	–	–	–	> 100 µM	–	> 100 µM	–	> 100 µM	> 100 µM	> 100 µM	> 100 µM	–	–	–

— PubChem BioAssay (NCI)
